Reference: patent US10081662B2, “Modified relaxin B chain peptides” (The Florey Institute of Neuroscience and Mental Health, priority 2014, dated 2018)
Where two headings read alike, the source gives them in different places. Peptide text beside a SMILES is read from it.

Key:
RXFP1 [1] = target: T1, RXFP1 (Homo sapiens, UniProt Q9HBX9); assay: Eu-labelled H2 relaxin competition binding, whole HEK-293T cells stably transfected with RXFP1
T1 construct: expressed in transfected cells; host or cells: HEK-293T
T1 sequence (Q9HBX9 1-757): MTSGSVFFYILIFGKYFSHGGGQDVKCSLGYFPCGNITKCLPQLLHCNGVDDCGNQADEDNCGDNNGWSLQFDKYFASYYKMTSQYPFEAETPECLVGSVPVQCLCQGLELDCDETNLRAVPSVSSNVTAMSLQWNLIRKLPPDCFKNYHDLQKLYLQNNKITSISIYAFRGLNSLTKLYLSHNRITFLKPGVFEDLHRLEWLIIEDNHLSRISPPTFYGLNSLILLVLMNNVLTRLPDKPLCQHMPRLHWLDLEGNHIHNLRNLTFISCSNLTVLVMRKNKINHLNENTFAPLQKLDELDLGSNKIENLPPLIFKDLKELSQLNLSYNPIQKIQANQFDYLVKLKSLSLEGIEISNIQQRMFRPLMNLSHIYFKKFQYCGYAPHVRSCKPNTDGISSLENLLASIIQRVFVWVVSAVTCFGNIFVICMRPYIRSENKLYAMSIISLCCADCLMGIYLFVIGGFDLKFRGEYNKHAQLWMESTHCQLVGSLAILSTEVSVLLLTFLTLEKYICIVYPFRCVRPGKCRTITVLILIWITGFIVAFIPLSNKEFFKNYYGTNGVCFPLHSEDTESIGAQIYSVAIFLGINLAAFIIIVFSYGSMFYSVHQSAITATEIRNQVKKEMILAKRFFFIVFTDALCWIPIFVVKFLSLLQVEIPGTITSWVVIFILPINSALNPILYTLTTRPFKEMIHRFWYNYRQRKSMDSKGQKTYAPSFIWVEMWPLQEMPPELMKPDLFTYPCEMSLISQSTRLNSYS
Description: Human embryonic kidney (HEK-293T) cells stably transfected with RXFP1 were cultured in RPMI 1640 medium supplemented with 10% fetal calf serum, 100 μg/ml penicillin, 100 μg/ml streptomycin and 2 mM L-glutamine and plated into 96-well pre-coated with poly-L-lysine for whole cell binding assays. Competition binding experiments were conducted with Eu^3+-labelled H2 relaxin (as per Shabanpoor et al., 2012, Biochem Biophys Res Commun. 420, 253-256) in the absence or presence of increasing concentrations of unlabelled relaxin-2 B chain derivatives. Nonspecific binding was determined with an excess of unlabelled peptides (500 nM H2 relaxin). Fluorescent measurements were recorded at an excitation wavelength of 340 nm and emission of 614 nm on a Victor plate reader (Perkin-Elmer Inc.). […] Statistical differences in pIC50 values were analyzed using one-way analysis of variance coupled to Newman Keul's multiple comparison test for multiple group comparisons in GraphPad Prism 6.

RXFP1 [2] = target: T1, RXFP1; assay: cAMP reporter gene assay (pCRE β-galactosidase) in HEK-293T cells transfected with RXFP1; type: cell-based
Description: The ability of the relaxin-2 B chain peptide derivatives generated in Example 1 to stimulate cAMP response was also evaluated, using a cAMP reporter gene assay as described previously (Scott et al., 2006, J Biol Chem. 281, 34942-34954). HEK-293T cells co-transfected with either RXFP1 or RXFP2, or 7BP cells, and a pCRE β-galactosidase reporter plasmid were plated in 96-well plates. After 24 hours, the co-transfected cells were incubated with increasing concentrations of peptides in parallel to 10 nM of H2 relaxin or INSL3 for RXFP1- or RXFP2-transfected cells respectively. The amount of cAMP-driven β-galactosidase expression in each well was assessed with a colorimetric assay measuring absorbance at 570 nm on a microplate spectrophotometer. Ligand-induced cAMP stimulation was expressed as a percentage of maximal response of H2 relaxin or INSL3 for RXFP1 and RXFP2 cells respectively. Each data point was measured in triplicate and each experiment conducted independently at least three separate times. Statistical differences in pEC50 values were analyzed using one-way ANOVA coupled to Newman Keul's multiple comparison test for multiple group comparisons in GraphPad Prism 6.

[3] = target: T2, fusion protein comprising the extracellular domain of RXFP1 and the transmembrane domain of CD8 (7BP cells) (Homo sapiens, UniProt Q9HBX9); assay: Eu-labelled H2 relaxin competition binding to 7BP cells
T2 construct: the extracellular domain of RXFP1 and the transmembrane domain of CD8; expressed in transfected cells
T2 sequence (Q9HBX9 1-409 limits assumed): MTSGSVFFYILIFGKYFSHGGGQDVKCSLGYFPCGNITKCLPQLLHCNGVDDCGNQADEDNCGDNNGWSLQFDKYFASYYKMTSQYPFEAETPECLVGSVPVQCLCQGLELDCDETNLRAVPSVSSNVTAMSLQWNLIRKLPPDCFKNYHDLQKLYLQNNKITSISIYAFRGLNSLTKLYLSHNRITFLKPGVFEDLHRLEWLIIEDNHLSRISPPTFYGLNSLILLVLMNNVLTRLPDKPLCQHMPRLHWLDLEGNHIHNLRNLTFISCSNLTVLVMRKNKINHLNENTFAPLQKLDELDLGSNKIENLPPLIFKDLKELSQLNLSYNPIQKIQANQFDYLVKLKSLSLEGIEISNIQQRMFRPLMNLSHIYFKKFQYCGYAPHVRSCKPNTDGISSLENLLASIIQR

[4] = Solubility of relaxin B chain peptides in aqueous solution
[5] = HEK-293T cells stably transfected with RXFP1, competition with Eu-labelled H2 relaxin, mean ± S.E, n ≥ 3, read-out: RXFP1 Eu-H2 pKi (converted)
[6] = HEK-293T cells co-transfected with RXFP1 and pCRE β-galactosidase reporter, n ≥ 3, read-out: RXFP1 cAMP pEC50 (converted)
[7] = 7BP cells, competition with Eu-labelled H2 relaxin, n ≥ 3, read-out: 7BP Eu-H2 pKi (converted)

Question: Which Ki (RXFP1 [1]; [5]) does the source give for `CC[C@H](C)[C@H](NC(=O)[C@H](C)NC(=O)[C@@H](NC(=O)[C@H](CCC(N)=O)NC(=O)[C@H](C)NC(=O)[C@H](CCCNC(=N)N)NC(=O)[C@@H](NC(=O)[C@H](CC(C)C)NC(=O)[C@H](CCC(=O)O)NC(=O)[C@H](CCCNC(=N)N)NC(=O)CNC(=O)[C@H](CO)NC(=O)[C@H](CC(C)C)NC(=O)[C@H](CCCCN)NC(=O)[C@@H](NC(=O)[C@@H](NC(C)=O)C(C)C)[C@@H](C)CC)C(C)C)[C@@H](C)CC)C(=O)N[C@@H](CO)C(=O)NCC(=O)N[C@@H](CCSC)C(=O)N[C@@H](CO)C(=O)N[C@H](C(=O)N[C@@H](Cc1c[nH]c2ccccc12)C(=O)N[C@@H](CO)C(=O)N[C@@H](CCCCN)C(=O)N[C@@H](CCCNC(=N)N)C(=O)N[C@@H](CO)C(=O)N[C@@H](CC(C)C)C(N)=O)[C@@H](C)O` [AcB7-33 C11.23S] (Ac-VIKLSGRELVRAQIAISGMSTWSKRSL-NH2) here?
Answer: 1000 nM

Question: What about the EC50 (RXFP1 [2]; [6]) of the same compound?
Answer: 3980 nM

Question: And the Ki [3, 7]?
Answer: 28.8 nM

Question: Which results are given for `CC[C@H](C)[C@H](NC(=O)[C@H](C)NC(=O)[C@H](C)NC(=O)[C@H](CCC(N)=O)NC(=O)[C@H](C)NC(=O)[C@H](C)NC(=O)[C@@H](NC(=O)[C@H](CC(C)C)NC(=O)[C@H](CCC(=O)O)NC(=O)[C@H](C)NC(=O)CNC(=O)[C@H](CO)NC(=O)[C@H](CC(C)C)NC(=O)[C@H](CCCCN)NC(=O)[C@@H](NC(=O)[C@@H](NC(C)=O)C(C)C)[C@@H](C)CC)C(C)C)C(=O)N[C@@H](CO)C(=O)NCC(=O)N[C@@H](CCSC)C(=O)N[C@@H](CO)C(=O)N[C@H](C(=O)N[C@@H](Cc1c[nH]c2ccccc12)C(=O)N[C@@H](CO)C(=O)N[C@@H](CCCCN)C(=O)N[C@@H](CCCNC(=N)N)C(=O)N[C@@H](CO)C(=O)N[C@@H](CC(C)C)C(N)=O)[C@@H](C)O` [R13/17A. I20A (AcB7-33 C11.23S)] (Ac-VIKLSGAELVAAQAAISGMSTWSKRSL-NH2)?
Answer: Ki (RXFP1 [1]): > 10000 nM; EC50 (RXFP1 [2]): > 10000 nM; Ki [3]: 2880 nM

Question: Which “Solubility at concentration 4 mg/ml” value ([4]; 4 mg/ml, FIG. 1) does the source give for `CC[C@H](C)[C@H](NC(=O)[C@H](C)NC(=O)[C@@H](NC(=O)[C@H](CCC(N)=O)NC(=O)[C@H](C)NC(=O)[C@H](CCCNC(=N)N)NC(=O)[C@@H](NC(=O)[C@H](CC(C)C)NC(=O)[C@H](CCC(=O)O)NC(=O)[C@H](CCCNC(=N)N)NC(=O)CNC(=O)[C@H](CS)NC(=O)[C@H](CC(C)C)NC(=O)[C@H](CCCCN)NC(=O)[C@@H](NC(=O)[C@@H](NC(=O)[C@H](CCC(=O)O)NC(=O)[C@H](CCC(=O)O)NC(=O)[C@H](CCSC)NC(=O)[C@H](Cc1c[nH]c2ccccc12)NC(=O)[C@H](CO)NC(=O)[C@@H](N)CC(=O)O)C(C)C)[C@@H](C)CC)C(C)C)[C@@H](C)CC)C(=O)N[C@@H](CS)C(=O)NCC(=O)N[C@@H](CCSC)C(=O)N[C@@H](CO)C(=O)N[C@H](C(=O)N[C@@H](Cc1c[nH]c2ccccc12)C(=O)N[C@@H](CO)C(N)=O)[C@@H](C)O` [H2 B chain] here?
Answer: insoluble

Question: What about the “Aqueous solubility (in words)” value ([4]; aqueous solution) of the same compound?
Answer: insoluble in aqueous solution

Question: What does the source list for `CC[C@H](C)[C@H](NC(=O)[C@H](C)NC(=O)[C@@H](NC(=O)[C@H](CCC(N)=O)NC(=O)[C@H](C)NC(=O)[C@H](C)NC(=O)[C@@H](NC(=O)[C@H](CC(C)C)NC(=O)[C@H](CCC(=O)O)NC(=O)[C@H](CCCNC(=N)N)NC(=O)CNC(=O)[C@H](CO)NC(=O)[C@H](CC(C)C)NC(=O)[C@H](CCCCN)NC(=O)[C@@H](NC(=O)[C@@H](NC(C)=O)C(C)C)[C@@H](C)CC)C(C)C)[C@@H](C)CC)C(=O)N[C@@H](CO)C(=O)NCC(=O)N[C@@H](CCSC)C(=O)N[C@@H](CO)C(=O)N[C@H](C(=O)N[C@@H](Cc1c[nH]c2ccccc12)C(=O)N[C@@H](CO)C(=O)N[C@@H](CCCCN)C(=O)N[C@@H](CCCNC(=N)N)C(=O)N[C@@H](CO)C(=O)N[C@@H](CC(C)C)C(N)=O)[C@@H](C)O` [R17A (AcB7-33 C11.23S)] (Ac-VIKLSGRELVAAQIAISGMSTWSKRSL-NH2)?
Answer: Ki (RXFP1 [1]; [5]): > 10000 nM; EC50 (RXFP1 [2]; [6]): > 10000 nM; Ki [3, 7]: 977 nM

Question: For `CC[C@H](C)[C@H](NC(=O)[C@H](C)NC(=O)[C@@H](NC(=O)[C@H](CCC(N)=O)NC(=O)[C@H](C)NC(=O)[C@H](CCCNC(=N)N)NC(=O)[C@@H](NC(=O)[C@H](CC(C)C)NC(=O)[C@H](CCC(=O)O)NC(=O)[C@H](C)NC(=O)CNC(=O)[C@H](CO)NC(=O)[C@H](CC(C)C)NC(=O)[C@H](CCCCN)NC(=O)[C@@H](NC(=O)[C@@H](NC(C)=O)C(C)C)[C@@H](C)CC)C(C)C)[C@@H](C)CC)C(=O)N[C@@H](CO)C(=O)NCC(=O)N[C@@H](CCSC)C(=O)N[C@@H](CO)C(=O)N[C@H](C(=O)N[C@@H](Cc1c[nH]c2ccccc12)C(=O)N[C@@H](CO)C(=O)N[C@@H](CCCCN)C(=O)N[C@@H](CCCNC(=N)N)C(=O)N[C@@H](CO)C(=O)N[C@@H](CC(C)C)C(N)=O)[C@@H](C)O` [R13A (AcB7-33 C11.23S)] (Ac-VIKLSGAELVRAQIAISGMSTWSKRSL-NH2), which Ki (RXFP1 [1]; [5]) is on record?
Answer: > 10000 nM

Question: And the EC50 (RXFP1 [2]; [6])?
Answer: > 10000 nM

Question: And the Ki [3, 7]?
Answer: 1740 nM

Question: Which Ki (RXFP1 [1]; [5]) does the source give for `CC[C@H](C)[C@H](NC(=O)[C@H](C)NC(=O)[C@@H](NC(=O)[C@H](CCC(N)=O)NC(=O)[C@H](C)NC(=O)[C@H](CCCNC(=N)N)NC(=O)[C@@H](NC(=O)[C@H](CC(C)C)NC(=O)[C@H](CCC(=O)O)NC(=O)[C@H](CCCNC(=N)N)NC(=O)CNC(=O)[C@H](CO)NC(=O)[C@H](CC(C)C)NC(=O)[C@H](CCCCN)NC(=O)[C@@H](NC(=O)[C@@H](NC(C)=O)C(C)C)[C@@H](C)CC)C(C)C)[C@@H](C)CC)C(=O)N[C@@H](CO)C(=O)NCC(=O)N[C@@H](CCSC)C(=O)N[C@@H](CO)C(=O)N[C@H](C(=O)N[C@@H](Cc1c[nH]c2ccccc12)C(=O)N[C@@H](CO)C(=O)N[C@@H](CCCCN)C(=O)N[C@@H](CCCCN)C(=O)N[C@@H](CCCCN)C(=O)N[C@@H](CCCCN)C(N)=O)[C@@H](C)O` [KKKK (AcB7-29 C11.23S)] (Ac-VIKLSGRELVRAQIAISGMSTWSKKKK-NH2) here?
Answer: 562 nM

Question: And the EC50 (RXFP1 [2]; [6])?
Answer: 1550 nM

Question: And the Ki [3, 7]?
Answer: 1.23 nM
